Test results from patent US8101658B2, “Nitric oxide donating prostamides” (Nicox S.A., priority 2008, dated 2012).
Several values for one entry are separate records, joined by “and”; a condition that tells them apart may be missing. Equal values may be shown once. Marks after values point to notes of the source that are not given here.

Assays:
[1] = system: ocular hypertensive non human primates; test: Intraocular pressure by pneumatonometry in ocular hypertensive primates; assay type: in vivo; settings: ocular hypertensive primate, hypertensive eye, topical 2×25 μl drops in the evening, dose equimolar to 0.03% Bimatoprost; for ΔEmax (maximal IOP efficacy as compared to baseline): IOP at 12 and 18 h, n=8
Method: (§1) Intraocular pressure was measured by pneumatonometry in ocular normotensive dogs (Beagle) and ocular hypertensive non human primates (for example, although dosing different here, see hypertensive primates described by Toris, C. B.; Zhan, G.-L.; Feilmeier, M. R.; Camras, C. B.; McLaughlin, M. A. J. Ocular Pharm. Ther. 2006, 22, 86-92). As described, only one eye is hypertensive in this primate model. Studies were performed in conscious animals (n=8/study) trained to accept pneumatonometry. The test compound and controls were formulated in a 10 mM citrate buffer vehicle at pH 5.5 with 0.5% Tween 80 and 0.02% benzalkonium chloride, and were administered in the evening. All test compounds were formulated at a dose equimolar to 0.03% Bimatoprost. Intraocular pressure was measured at −12 (baseline), 12 and 18 hours post treatment. Tetracaine hydrochloride (0.5%) was used to anesthetize the cornea when the intraocular pressure measurements were taken.
(§2) In the primate model, the hypertensive eye received 2×25 μl volume drops of the test compound. After a washout period of one week, the ocular hypertensive eye was then dosed with Bimatoprost (2×25 μl volume drops) as a control. The contralateral, normotensive eye was not treated in the study. In the normotensive dog model, the test compound was administered topically to one eye in a 50 μl volume drop. The contralateral eye received a 50 μl volume drop of blank vehicle or Bimatoprost (in the case of the head-to-head study only) to serve as a control. Students paired t test was used to compare treatment with test compound vs vehicle or Bimatoprost control for significant differences.
(§3) Tables 2 and 3 describe the intraocular pressure (IOP) changes that were seen following topical application of novel NO-prostamides in ocular hypertensive non-human primates and normotensive dogs. ΔEmax represents the maximal efficacy as compared to baseline (BL) values. ΔΔEmax reflects the difference in IOP from compound-treated eye over that seen for vehicle-treated eye at the timepoint wherein maximum IOP reduction for compound was seen. The percent change from vehicle control was the percentage change in IOP reduction conferred by compound over that for vehicle (set at 100%). Tmax represents the time point at which maximum IOP reduction of compound was observed.

[2] = system: ocular normotensive dogs (Beagle); test: Intraocular pressure by pneumatonometry in ocular normotensive dogs; assay type: in vivo; settings: normotensive dog; for ΔΔEmax (difference in IOP compound-treated eye over vehicle-treated eye at time of maximum reduction): topical 50 μl drop to one eye in the evening, contralateral eye vehicle, dose equimolar to 0.03% Bimatoprost, n=8; for % Change from vehicle control (IOP): topical 50 μl drop to one eye, contralateral eye vehicle (set at 100%)
Method: as §1, §2, §3

Structure (SMILES)	% change from Baseline (IOP) [1]	ΔEmax (maximal IOP efficacy as compared to baseline) [1]	ΔΔEmax (difference in IOP compound-treated eye over vehicle-treated eye at time of maximum reduction) [2]	% Change from vehicle control (IOP) [2]
CCNC(=O)CCC/C=C\C[C@@H]1[C@@H](/C=C/[C@@H](O)CCc2ccccc2)[C@H](O)C[C@@H]1O [Bimatoprost, reference compound]	−13%	−4.8* mm Hg	−4.0** mm H/g	−16** %
CCNC(=O)CCC/C=C\C[C@@H]1[C@@H](/C=C/[C@H](CCc2ccccc2)OC(=O)CCCO[N+](=O)[O-])[C@H](O)C[C@@H]1O [Example A-1, (1S,2E)-3-{(1R,2R,3S,5R)-2-[(2Z)-7-(Ethylamino)-7-oxohept-2-en-1-yl]-3,5-dihydroxycyclopentyl}-1-(2-phenylethyl)prop-2-en-1-yl 4-(Nitrooxy)butanoate]	–	–	−3.6** mm H/g	−20** %
CCNC(=O)CCC/C=C\C[C@@H]1[C@@H](/C=C/[C@H](CCc2ccccc2)OC(=O)CCCCCO[N+](=O)[O-])[C@H](O)C[C@@H]1O [Example B-1, (1S,2E)-3-{(1R,2R,3S,5R)-2-[(2Z)-7-(Ethylamino)-7-oxohept-2-en-1-yl]-3,5-dihydroxycyclopentyl}-1-(2-phenylethyl)prop-2-en-1-yl 6-(Nitrooxy)hexanoate]	−24** %	−7.7** mm Hg	–	−28** % and −34** %
CCNC(=O)CCC/C=C\C[C@@H]1[C@@H](/C=C/[C@H](CCc2ccccc2)OC(=O)CCOCCOCCOCCO[N+](=O)[O-])[C@H](O)C[C@@H]1O [Example C-1, (1S,2E)-3-{(1R,2R,3S,5R)-2-[(2Z)-7-(Ethylamino)-7-oxohept-2-en-1-yl]-3,5-dihydroxycyclopentyl}-1-(2-phenylethyl)prop-2-en-1-yl 3-(2-{2-[2-(Nitrooxy)ethoxy]ethoxy}ethoxy)propanoate]	–	–	−3.6** mm H/g	-18%
CCNC(=O)CCC/C=C\C[C@@H]1[C@@H](/C=C/[C@@H](O)CCc2ccccc2)[C@H](OC(=O)CCCCCO[N+](=O)[O-])C[C@@H]1O [Example F-1, (1R,2R,3R,4S)-3-[(2Z)-7-(Ethylamino)-7-oxohept-2-en-1-yl]-4-hydroxy-2-[(1E,3S)-3-hydroxy-5-phenylpent-1-en-1-yl]cyclopentyl 6-(Nitrooxy)hexanoate]	–	–	−4.9** mm H/g	−25** %
CCNC(=O)CCC/C=C\C[C@@H]1[C@@H](/C=C/[C@@H](O)CCc2ccccc2)[C@H](OC(=O)OCCCCO[N+](=O)[O-])C[C@@H]1O [Example G-1, (2R,3R)-3-[(2Z)-7-(Ethylamino)-7-oxohept-2-en-1-yl]-4-hydroxy-2-[(1E,3S)-3-hydroxy-5-phenylpent-1-en-1-yl]cyclopentyl 4-(Nitrooxy)butyl Carbonate]	–	–	−3.8** mm H/g	-20%
